In patent US9163013B2, “Use of 1H-indazole-3-carboxamide compounds as glycogen synthase kinase 3 beta inhibitors” (AZIENDE CHIMICHE RIUNITE ANGELINI FRANCESCO A.C.R.A.F. …, priority 2012, dated 2015):
Structures can show the parent of a compound that is named as a salt.

Key:
Assay in all cases: Kinase selectivity panel
IGF1R kinase (h) = IGF1R kinase (h) (Homo sapiens (Human), UniProt P08069); type: biochemical; conditions: duplicate, read-out: % inhibition of control values, IGF1R kinase (h)
Method: (§1) (a) Compound 1 was tested against a panel of 60 kinases in order to assess its selectivity. The assays were chosen taking into consideration the diversity of assay families.
(§2) Human recombinant kinases were incubated in the presence of specific peptide substrates plus ATP for different times (10, 15, 30, 60 or 90 minutes) at 22° C. Phosphorylated substrate was detected by LANCE or HTRF technology (CISBIO, MA, USA).
(§3) Compound 1 was tested at 10 μM in duplicate.
(§4) The results are expressed as a percent of inhibition of control specific activity obtained in the presence of the test compound 1 and are reported in the following Table 5.
(§5) (b) Compounds 7, 12, 21 and 24 were tested against the same panel of 60 kinases under the same conditions described above for compound 1.
(§6) The results are expressed as a percent of inhibition of control specific activity obtained in the presence of the test compounds and are reported in the following Table 6.

PhKgamma 2 (h) = PhKgamma 2 (h) (Homo sapiens (Human), UniProt P15735); type: biochemical; conditions: duplicate, read-out: % inhibition of control values, PhKgamma 2 (h)
Method: as §1, §2, §3, §4, §5, §6

EphA4 kinase (h) = EphA4 kinase (h) (Homo sapiens (Human), UniProt P54764); type: biochemical; conditions: duplicate, read-out: % inhibition of control values, EphA4 kinase (h)
Chain of EphA4 kinase (h) (P54764 20-986): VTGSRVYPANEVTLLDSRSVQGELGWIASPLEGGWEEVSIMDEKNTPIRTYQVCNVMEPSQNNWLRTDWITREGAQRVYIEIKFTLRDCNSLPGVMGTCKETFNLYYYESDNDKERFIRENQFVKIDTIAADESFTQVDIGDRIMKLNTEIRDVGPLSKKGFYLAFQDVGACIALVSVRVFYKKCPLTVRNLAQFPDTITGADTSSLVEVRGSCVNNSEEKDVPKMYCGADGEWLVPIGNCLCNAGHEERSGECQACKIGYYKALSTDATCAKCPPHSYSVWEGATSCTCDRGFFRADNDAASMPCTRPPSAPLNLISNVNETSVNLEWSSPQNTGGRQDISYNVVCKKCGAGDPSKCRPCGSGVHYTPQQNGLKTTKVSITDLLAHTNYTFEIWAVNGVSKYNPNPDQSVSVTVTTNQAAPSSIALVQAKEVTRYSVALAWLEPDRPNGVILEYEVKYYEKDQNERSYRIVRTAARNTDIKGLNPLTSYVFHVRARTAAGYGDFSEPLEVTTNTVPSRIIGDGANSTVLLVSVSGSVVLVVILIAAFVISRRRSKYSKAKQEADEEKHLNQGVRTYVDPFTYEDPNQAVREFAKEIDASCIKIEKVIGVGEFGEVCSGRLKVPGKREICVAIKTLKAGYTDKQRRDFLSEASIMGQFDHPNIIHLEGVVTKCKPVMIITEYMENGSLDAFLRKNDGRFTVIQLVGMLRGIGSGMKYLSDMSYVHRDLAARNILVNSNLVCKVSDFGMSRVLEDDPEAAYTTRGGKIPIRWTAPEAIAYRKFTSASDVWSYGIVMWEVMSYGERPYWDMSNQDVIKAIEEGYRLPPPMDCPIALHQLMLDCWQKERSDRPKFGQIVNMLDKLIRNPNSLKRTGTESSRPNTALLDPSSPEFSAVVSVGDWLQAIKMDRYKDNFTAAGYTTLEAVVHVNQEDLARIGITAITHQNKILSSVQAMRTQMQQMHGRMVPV
Method: as §1, §2, §3, §4, §5, §6

c-Met kinase (h) = c-Met kinase (h) (Homo sapiens (Human), UniProt P08581); type: biochemical; conditions: duplicate, read-out: % inhibition of control values, c-Met kinase (h)
Method: as §1, §2, §3, §4, §5, §6

EphB4 kinase (h) = EphB4 kinase (h) (Homo sapiens (Human), UniProt P54760); type: biochemical; conditions: duplicate, read-out: % inhibition of control values, EphB4 kinase (h)
Method: as §1, §2, §3, §4, §5, §6

GSK3beta (h) = GSK3beta (h) (Homo sapiens (Human), UniProt P49841); type: biochemical; conditions: for inhibition at 10 µM: duplicate, read-out: % inhibition of control values, GSK3beta (h); for Selectivity for GSK-3β compared to the other kinases of the panel: panel of 60 kinases, 10 μM
Chain of GSK3beta (h) (P49841 whole entry): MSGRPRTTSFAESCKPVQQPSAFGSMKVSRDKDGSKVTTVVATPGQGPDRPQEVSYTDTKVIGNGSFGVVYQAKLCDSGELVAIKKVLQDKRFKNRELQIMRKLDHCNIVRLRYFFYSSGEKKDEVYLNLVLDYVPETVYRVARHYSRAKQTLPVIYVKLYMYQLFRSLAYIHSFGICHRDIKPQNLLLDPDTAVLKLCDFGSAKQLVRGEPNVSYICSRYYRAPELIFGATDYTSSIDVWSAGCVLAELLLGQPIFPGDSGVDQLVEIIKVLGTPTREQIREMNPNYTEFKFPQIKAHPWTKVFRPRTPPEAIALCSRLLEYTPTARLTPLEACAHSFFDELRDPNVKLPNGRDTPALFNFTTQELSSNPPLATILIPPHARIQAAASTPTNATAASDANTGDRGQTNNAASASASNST
Method: as §1, §2, §3, §4, §5, §6

PDK1 (h) = PDK1 (h) (Homo sapiens (Human), UniProt O15530); type: biochemical; conditions: duplicate, read-out: % inhibition of control values, PDK1 (h)
Chain of PDK1 (h) (O15530 whole entry): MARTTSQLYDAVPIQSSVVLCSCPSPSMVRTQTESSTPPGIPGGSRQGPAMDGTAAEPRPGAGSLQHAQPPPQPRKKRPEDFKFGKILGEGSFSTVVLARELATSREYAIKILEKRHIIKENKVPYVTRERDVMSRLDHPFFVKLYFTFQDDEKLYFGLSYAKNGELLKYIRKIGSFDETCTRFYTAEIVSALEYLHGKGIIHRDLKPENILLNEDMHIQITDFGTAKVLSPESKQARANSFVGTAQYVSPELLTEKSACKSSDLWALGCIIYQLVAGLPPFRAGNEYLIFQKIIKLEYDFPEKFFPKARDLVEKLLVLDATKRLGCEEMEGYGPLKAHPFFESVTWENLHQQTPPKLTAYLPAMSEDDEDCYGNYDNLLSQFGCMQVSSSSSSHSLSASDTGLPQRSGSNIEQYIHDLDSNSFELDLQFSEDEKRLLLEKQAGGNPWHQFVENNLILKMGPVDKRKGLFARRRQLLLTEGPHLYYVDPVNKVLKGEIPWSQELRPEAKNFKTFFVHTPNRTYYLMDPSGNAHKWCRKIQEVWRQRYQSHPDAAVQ
Method: as §1, §2, §3, §4, §5, §6

DLK1 (h) (MAP3K12) = DLK1 (h) (MAP3K12) (Homo sapiens (Human), UniProt Q12852); type: biochemical; conditions: duplicate, read-out: % inhibition of control values, DLK1 (h) (MAP3K12)
Method: as §1, §2, §3, §4, §5, §6

FGFR1 kinase (h) = FGFR1 kinase (h) (Homo sapiens (Human), UniProt P11362); type: biochemical; conditions: duplicate, read-out: % inhibition of control values, FGFR1 kinase (h)
Chain of FGFR1 kinase (h) (P11362 22-822): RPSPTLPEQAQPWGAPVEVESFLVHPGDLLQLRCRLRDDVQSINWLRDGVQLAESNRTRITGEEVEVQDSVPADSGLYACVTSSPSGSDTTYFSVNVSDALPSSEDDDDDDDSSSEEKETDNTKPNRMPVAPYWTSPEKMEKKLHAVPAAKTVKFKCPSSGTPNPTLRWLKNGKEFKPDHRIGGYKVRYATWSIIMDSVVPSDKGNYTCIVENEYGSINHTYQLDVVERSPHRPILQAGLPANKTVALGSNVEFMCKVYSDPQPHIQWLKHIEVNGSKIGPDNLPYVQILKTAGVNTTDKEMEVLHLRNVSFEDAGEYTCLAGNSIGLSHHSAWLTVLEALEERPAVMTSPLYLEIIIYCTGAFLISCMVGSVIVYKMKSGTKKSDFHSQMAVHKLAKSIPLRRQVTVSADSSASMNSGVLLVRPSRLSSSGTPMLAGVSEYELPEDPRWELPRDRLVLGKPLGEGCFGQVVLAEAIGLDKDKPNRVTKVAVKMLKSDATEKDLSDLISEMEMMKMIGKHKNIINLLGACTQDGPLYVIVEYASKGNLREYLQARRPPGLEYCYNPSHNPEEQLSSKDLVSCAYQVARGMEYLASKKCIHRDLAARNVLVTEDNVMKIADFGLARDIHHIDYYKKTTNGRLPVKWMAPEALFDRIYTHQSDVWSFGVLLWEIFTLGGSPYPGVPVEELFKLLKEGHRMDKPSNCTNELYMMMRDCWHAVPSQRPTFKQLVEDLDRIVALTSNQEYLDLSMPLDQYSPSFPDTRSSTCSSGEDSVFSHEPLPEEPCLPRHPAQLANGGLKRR
Method: as §1, §2, §3, §4, §5, §6

p38alpha kinase (h) = p38alpha kinase (h) (Homo sapiens (Human), UniProt Q16539); type: biochemical; conditions: duplicate, read-out: % inhibition of control values, p38alpha kinase (h)
Method: as §1, §2, §3, §4, §5, §6

FGFR4 kinase (h) = FGFR4 kinase (h) (Homo sapiens (Human), UniProt P22455); type: biochemical; conditions: duplicate, read-out: % inhibition of control values, FGFR4 kinase (h)
Chain of FGFR4 kinase (h) (P22455 22-802): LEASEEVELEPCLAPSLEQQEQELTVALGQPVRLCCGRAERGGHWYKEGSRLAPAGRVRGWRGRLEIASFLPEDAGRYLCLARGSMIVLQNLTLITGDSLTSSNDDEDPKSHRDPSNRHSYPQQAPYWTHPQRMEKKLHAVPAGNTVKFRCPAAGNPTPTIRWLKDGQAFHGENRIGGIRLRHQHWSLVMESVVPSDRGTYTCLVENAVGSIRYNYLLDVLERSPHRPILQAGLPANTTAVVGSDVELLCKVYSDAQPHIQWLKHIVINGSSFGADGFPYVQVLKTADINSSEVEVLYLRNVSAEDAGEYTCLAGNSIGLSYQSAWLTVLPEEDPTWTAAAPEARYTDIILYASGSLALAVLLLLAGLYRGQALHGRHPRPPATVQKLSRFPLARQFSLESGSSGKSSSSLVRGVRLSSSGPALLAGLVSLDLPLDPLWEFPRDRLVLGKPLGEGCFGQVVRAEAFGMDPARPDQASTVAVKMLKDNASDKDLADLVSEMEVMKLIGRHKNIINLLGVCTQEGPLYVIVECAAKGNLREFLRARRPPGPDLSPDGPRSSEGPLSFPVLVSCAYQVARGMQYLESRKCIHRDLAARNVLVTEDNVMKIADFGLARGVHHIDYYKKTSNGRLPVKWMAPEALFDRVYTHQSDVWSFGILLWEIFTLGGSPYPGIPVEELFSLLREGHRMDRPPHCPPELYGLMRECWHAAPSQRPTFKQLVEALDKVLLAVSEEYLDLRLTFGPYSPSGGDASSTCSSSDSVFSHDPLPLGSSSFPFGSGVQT
Method: as §1, §2, §3, §4, §5, §6

Pim1 kinase (h) = Pim1 kinase (h) (Homo sapiens (Human), UniProt P11309); type: biochemical; conditions: duplicate, read-out: % inhibition of control values, Pim1 kinase (h)
Chain of Pim1 kinase (h) (P11309 whole entry): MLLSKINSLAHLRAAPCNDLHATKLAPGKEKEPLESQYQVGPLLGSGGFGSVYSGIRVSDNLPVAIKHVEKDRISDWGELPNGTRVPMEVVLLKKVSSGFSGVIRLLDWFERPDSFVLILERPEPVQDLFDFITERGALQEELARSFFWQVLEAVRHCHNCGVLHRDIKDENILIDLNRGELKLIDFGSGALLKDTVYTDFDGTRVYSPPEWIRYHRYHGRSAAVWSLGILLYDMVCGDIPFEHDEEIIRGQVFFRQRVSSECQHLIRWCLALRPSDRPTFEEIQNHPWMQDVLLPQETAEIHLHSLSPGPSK
Method: as §1, §2, §3, §4, §5, §6

RSK2 (h) = RSK2 (h) (Homo sapiens (Human), UniProt P51812); type: biochemical; conditions: duplicate, read-out: % inhibition of control values, RSK2 (h)
Method: as §1, §2, §3, §4, §5, §6

TRKA (h) = TRKA (h) (Homo sapiens (Human), UniProt P04629); type: biochemical; conditions: duplicate, read-out: % inhibition of control values, TRKA (h)
Method: as §1, §2, §3, §4, §5, §6

AurA/Aur2 kinase (h) = AurA/Aur2 kinase (h) (Homo sapiens (Human), UniProt O14965); type: biochemical; conditions: duplicate, read-out: % inhibition of control values, AurA/Aur2 kinase (h)
Method: as §1, §2, §3, §4, §5, §6

HGK (h) (MAP4K4) = HGK (h) (MAP4K4) (Homo sapiens (Human), UniProt O95819); type: biochemical; conditions: duplicate, read-out: % inhibition of control values, HGK (h) (MAP4K4)
Method: as §1, §2, §3, §4, §5, §6

EphB2 kinase (h) = EphB2 kinase (h) (Homo sapiens (Human), UniProt P29323); type: biochemical; conditions: duplicate, read-out: % inhibition of control values, EphB2 kinase (h)
Method: as §1, §2, §3, §4, §5, §6

JAK1 (h) = JAK1 (h) (Homo sapiens (Human), UniProt P23458); type: biochemical; conditions: duplicate, read-out: % inhibition of control values, JAK1 (h)
Method: as §1, §2, §3, §4, §5, §6

JAK2 (h) = JAK2 (h) (Homo sapiens (Human), UniProt O60674); type: biochemical; conditions: duplicate, read-out: % inhibition of control values, JAK2 (h)
Method: as §1, §2, §3, §4, §5, §6

CDK5/p35 (h) = CDK5/p35 (h) (Homo sapiens (Human), UniProt Q00535); type: biochemical; conditions: duplicate, read-out: % inhibition of control values, CDK5/p35 (h)
Method: as §1, §2, §3, §4, §5, §6

Ret kinase (h) = Ret kinase (h) (Homo sapiens (Human), UniProt P07949); type: biochemical; conditions: duplicate, read-out: % inhibition of control values, Ret kinase (h)
Method: as §1, §2, §3, §4, §5, §6

IRK (h) (InsR) = IRK (h) (InsR) (Homo sapiens (Human), UniProt P06213); type: biochemical; conditions: duplicate, read-out: % inhibition of control values, IRK (h) (InsR)
Method: as §1, §2, §3, §4, §5, §6

TAOK2 (TAO1) (h) = TAOK2 (TAO1) (h) (Homo sapiens (Human), UniProt Q9UL54); type: biochemical; conditions: duplicate, read-out: % inhibition of control values, TAOK2 (TAO1) (h)
Chain of TAOK2 (TAO1) (h) (Q9UL54 whole entry): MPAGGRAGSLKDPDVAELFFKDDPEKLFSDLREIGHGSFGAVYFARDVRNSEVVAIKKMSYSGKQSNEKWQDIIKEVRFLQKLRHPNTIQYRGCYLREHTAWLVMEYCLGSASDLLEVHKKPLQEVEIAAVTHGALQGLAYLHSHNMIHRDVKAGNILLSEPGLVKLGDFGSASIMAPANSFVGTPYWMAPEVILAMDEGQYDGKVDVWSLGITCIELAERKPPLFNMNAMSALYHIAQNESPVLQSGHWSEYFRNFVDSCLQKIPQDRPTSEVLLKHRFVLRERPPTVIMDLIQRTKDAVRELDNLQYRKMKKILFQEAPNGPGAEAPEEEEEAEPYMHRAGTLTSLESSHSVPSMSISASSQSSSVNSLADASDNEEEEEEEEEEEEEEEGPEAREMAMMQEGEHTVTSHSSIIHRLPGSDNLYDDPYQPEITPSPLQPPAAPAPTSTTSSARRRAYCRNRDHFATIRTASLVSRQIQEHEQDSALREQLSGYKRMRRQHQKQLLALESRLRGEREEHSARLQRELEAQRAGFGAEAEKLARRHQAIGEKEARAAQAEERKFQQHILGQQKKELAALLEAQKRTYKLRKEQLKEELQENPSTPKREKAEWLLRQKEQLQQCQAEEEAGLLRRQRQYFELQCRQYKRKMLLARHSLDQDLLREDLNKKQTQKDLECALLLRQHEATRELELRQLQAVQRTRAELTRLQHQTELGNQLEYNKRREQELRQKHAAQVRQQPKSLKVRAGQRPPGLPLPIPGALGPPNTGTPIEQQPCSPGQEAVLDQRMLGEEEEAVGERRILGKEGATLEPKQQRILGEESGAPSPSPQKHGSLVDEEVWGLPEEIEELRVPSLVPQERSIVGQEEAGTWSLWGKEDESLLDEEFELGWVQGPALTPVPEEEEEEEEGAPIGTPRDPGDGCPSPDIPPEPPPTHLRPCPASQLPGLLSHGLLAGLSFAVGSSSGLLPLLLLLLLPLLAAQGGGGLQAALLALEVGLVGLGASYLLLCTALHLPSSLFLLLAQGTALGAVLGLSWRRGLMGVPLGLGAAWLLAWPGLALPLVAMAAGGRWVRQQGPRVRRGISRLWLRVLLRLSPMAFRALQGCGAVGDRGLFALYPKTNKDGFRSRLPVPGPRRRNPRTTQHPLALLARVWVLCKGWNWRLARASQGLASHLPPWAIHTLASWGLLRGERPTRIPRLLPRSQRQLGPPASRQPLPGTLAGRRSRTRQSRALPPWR
Method: as §1, §2, §3, §4, §5, §6

GRK3/BARK2 (h) (ADRBK2) = GRK3/BARK2 (h) (ADRBK2) (Homo sapiens (Human), UniProt P35626); type: biochemical; conditions: duplicate, read-out: % inhibition of control values, GRK3/BARK2 (h) (ADRBK2)
Method: as §1, §2, §3, §4, §5, §6

AMPKalpha = type: biochemical, human; conditions: 10 μM, duplicate
Method: as §1, §2, §3, §4, §5, §6

SMILES	inhibition at 10 µM (IGF1R kinase (h))	inhibition at 10 µM (PhKgamma 2 (h))	inhibition at 10 µM (EphA4 kinase (h))	inhibition at 10 µM (c-Met kinase (h))	inhibition at 10 µM (EphB4 kinase (h))	inhibition at 10 µM (GSK3beta (h))	Selectivity for GSK-3β compared to the other kinases of the panel (GSK3beta (h))	inhibition at 10 µM (PDK1 (h))	inhibition at 10 µM (DLK1 (h) (MAP3K12))	inhibition at 10 µM (FGFR1 kinase (h))	inhibition at 10 µM (p38alpha kinase (h))	inhibition at 10 µM (FGFR4 kinase (h))	inhibition at 10 µM (Pim1 kinase (h))	inhibition at 10 µM (RSK2 (h))	inhibition at 10 µM (TRKA (h))	inhibition at 10 µM (AurA/Aur2 kinase (h))	inhibition at 10 µM (HGK (h) (MAP4K4))	inhibition at 10 µM (EphB2 kinase (h))	inhibition at 10 µM (JAK1 (h))	inhibition at 10 µM (JAK2 (h))	other results
COc1ccc2[nH]nc(C(=O)NCC3CCN(CCc4ccc(O)cc4)CC3)c2c1 [Compound 1, N-({1-[2-(4-hydroxyphenyl)ethyl]-piperidin-4-yl}methyl)-5-methoxy-1H-indazole-3-carboxamide]	5%	6%	0%	0%	0%	92%	good selectivity profile	8%	10%	6%	0%	2%	2%	3%	10%	1%	17%	0%	0%	0%	inhibition at 10 µM (CDK5/p35 (h)): 30%; inhibition at 10 µM (Ret kinase (h)): 1%; inhibition at 10 µM (IRK (h) (InsR)): 18%; inhibition at 10 µM (TAOK2 (TAO1) (h)): 41%; inhibition at 10 µM (GRK3/BARK2 (h) (ADRBK2)): 8%; % inhibition of control values, AMPKalpha (AMPKalpha): 13%
COc1ccncc1-c1ccc2[nH]nc(C(=O)NCC3CCN(Cc4ccc(C(=O)O)o4)CC3)c2c1 [Compound 21, 5-({4-[({[5-(4-Methoxypyridin-3-yl)-1H-indazol-3-yl]carbonyl}amino)methyl]piperidin-1-yl}methyl)furan-2-carboxylic acid formate]	0%	0%	2%	0%	3%	96%	good affinity to GSK-3β when compared to most of other kinases of the same family	0%	46%	13%	1%	0%	10%	20%	4%	30%	99%	2%	10%	2%	inhibition at 10 µM (CDK5/p35 (h)): 98%; inhibition at 10 µM (Ret kinase (h)): 0%; inhibition at 10 µM (IRK (h) (InsR)): 0%; inhibition at 10 µM (TAOK2 (TAO1) (h)): 54%; inhibition at 10 µM (GRK3/BARK2 (h) (ADRBK2)): 4%; % inhibition of control values, AMPKalpha (AMPKalpha): 70%
COc1ccc2[nH]nc(C(=O)NCC3CCN(Cc4ccc(C(=O)O)o4)CC3)c2c1 [Compound 24, 5-{[4-({[(5-Methoxy-1H-indazol-3-yl)carbonyl]amino}methyl)piperidin-1-yl]methyl}furan-2-carboxylic acid]	0%	0%	0%	2%	0%	94%	good selectivity profile	0%	0%	0%	0%	4%	2%	1%	1%	4%	19%	0%	1%	0%	inhibition at 10 µM (CDK5/p35 (h)): 16%; inhibition at 10 µM (Ret kinase (h)): 0%; inhibition at 10 µM (IRK (h) (InsR)): 3%; inhibition at 10 µM (TAOK2 (TAO1) (h)): 8%; inhibition at 10 µM (GRK3/BARK2 (h) (ADRBK2)): 0%; % inhibition of control values, AMPKalpha (AMPKalpha): 21%
